Measured values: patent US8669264B2, “Rutaecarpine derivatives for activating CYP1A2 in a subject” (Linnet Biopharmaceuticals, Inc., priority 2011, dated 2014)

Test system: CYP1A2
Assay: MEROD assay in live Hepa1c1c7 cells (CYP1A2 induction)
Format: cell-based, mouse
Conditions: Hepa1c1c7 cells incubated with 10 μM compound
Description: FIG. 1 illustrates how caffeine is primarily metabolized to paraxanthine via CYP1A2 enzyme in a human, according to some embodiments. The MEROD (methoxyresorufin-O-demethylase) assay measures the activity of the enzyme (CYP1A2) that converts methoxyresorufin (probe substrate) to resorufin (demethylation) in the presence of NADPH. The resulting resorufin concentration can be measured using a fluorescence reader by setting the excitation and emission wavelengths at 544 and 590 nm, respectively.
For MEROD assay in live cells, Hepa1c1c7 cells were cultured in either 6-well or 24-well-plates. For the 24-well plate experiment, after confluent cells were incubated for approximately 20 hours with either resorufin, nitro-resorufin, chloro-resorufin, 3-MC or DMSO (in triplicates), culture media was removed and 180 μL fresh culture media containing […] methoxyresorufin was added per well. After 1 hour incubation at 37° C., 100 μL aliquot was taken from each well and the formation of resorufin was measured by fluorescence. […] After 5 hours incubation at 37° C., 100 μL aliquot was taken from each well, centrifuged at 12,000 g at RT for ˜5 min and the supernatants were placed into wells of a 96-well fluorescence plate and the formation of resorufin was measured by fluorescence.

- formation of resorufin from live cells (MEROD): no marked difference
SMILES: O=c1c2ccc(Cl)cc2nc2n1CCc1c-2[nH]c2ccccc12 [chloro-rutaecarpine]
